In patent US20230365546A1, “5-SUBSTITUTED INDOLE 3-AMIDE DERIVATIVES, PREPARATION METHOD AND USE THEREOF” (ORIGIANT PHARMACEUTICAL CO., LTD, priority 2020, published 2023):
Values joined by “and” are separate entries in the source; they are usually repeats but may differ in a detail not shown here. Equal values may be shown once.

Assays:
Experiment in all cases: Kinase Profiler 10 μM panel
AMPKα1(h) = AMPKα1(h) (Homo sapiens (Human), UniProt Q13131)
Method: (§1) In vitro kinase assays were conducted using Kinase Profiler services provided by Eurofins. The experimental method was as follows: the small molecule compound to be tested (0.001-10 μM), the protein kinase to be tested were incubated with a buffer containing substrate, 10 mM magnesium acetate, and [γ-^33P-ATP], the reaction was started by adding Mg\TPmix, after incubation for a period of time at room temperature, a 3% phosphate solution was added to the buffer to stop the reaction. Subsequently, 10 μL of the reaction mixture was quantitatively pipetted onto P30 filter paper, which was washed three times with 75 mM phosphate solution and then once with methanol. The P30 filter paper was air-dried and scintillation fluid was added for scintillation counting.

CLK2(h) = CLK2(h) (Homo sapiens (Human), UniProt P49760)
Method: as §1

MARK4(h) = MARK4(h) (Homo sapiens (Human), UniProt Q96L34)
Method: as §1

Ros(h) = Ros(h) (Homo sapiens (Human), UniProt P08922)
Method: as §1

SGK3(h) = SGK3(h) (Homo sapiens (Human), UniProt Q96BR1)
Method: as §1

PRK1(h) = PRK1(h) (Homo sapiens (Human), UniProt Q16512)
Sequence of PRK1(h) (Q16512 whole entry): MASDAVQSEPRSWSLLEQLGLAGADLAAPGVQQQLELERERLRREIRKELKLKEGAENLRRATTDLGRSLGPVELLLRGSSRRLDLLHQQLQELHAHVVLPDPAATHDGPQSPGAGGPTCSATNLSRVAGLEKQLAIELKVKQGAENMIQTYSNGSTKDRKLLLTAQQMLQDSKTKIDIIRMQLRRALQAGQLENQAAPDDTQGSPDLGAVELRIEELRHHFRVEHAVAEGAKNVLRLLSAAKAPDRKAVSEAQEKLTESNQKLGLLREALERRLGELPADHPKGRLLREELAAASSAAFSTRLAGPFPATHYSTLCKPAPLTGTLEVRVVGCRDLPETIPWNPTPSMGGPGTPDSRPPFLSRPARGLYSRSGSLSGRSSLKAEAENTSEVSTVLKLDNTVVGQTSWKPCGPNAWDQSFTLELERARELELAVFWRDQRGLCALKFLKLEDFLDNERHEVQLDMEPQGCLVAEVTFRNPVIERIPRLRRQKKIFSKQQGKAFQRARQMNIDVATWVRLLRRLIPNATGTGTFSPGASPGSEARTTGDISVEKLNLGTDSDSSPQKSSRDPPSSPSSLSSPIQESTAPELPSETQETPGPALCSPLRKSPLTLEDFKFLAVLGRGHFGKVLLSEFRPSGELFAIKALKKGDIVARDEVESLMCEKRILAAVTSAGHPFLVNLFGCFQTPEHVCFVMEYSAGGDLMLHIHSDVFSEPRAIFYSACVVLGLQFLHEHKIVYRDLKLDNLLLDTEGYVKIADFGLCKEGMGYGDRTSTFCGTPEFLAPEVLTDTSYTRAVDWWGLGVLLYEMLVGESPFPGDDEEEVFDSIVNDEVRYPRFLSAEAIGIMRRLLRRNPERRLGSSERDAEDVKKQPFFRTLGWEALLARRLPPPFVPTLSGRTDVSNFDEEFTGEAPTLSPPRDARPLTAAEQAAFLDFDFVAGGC
Method: as §1

CK1δ(h) = CK1δ(h) (Homo sapiens (Human), UniProt P48730)
Method: as §1

NEK4(h) = NEK4(h) (Homo sapiens (Human), UniProt P51957)
Method: as §1

MYO3B(h) = MYO3B(h) (Homo sapiens (Human), UniProt Q8WXR4)
Method: as §1

PDGFRβ(h) = PDGFRβ(h) (Homo sapiens (Human), UniProt P09619)
Method: as §1

CDK5/p35(h) = CDK5/p35(h) (Homo sapiens (Human), UniProt Q00535)
Method: as §1

Abl(m) = Abl(m) (Mus musculus (Mouse), UniProt P00520)
Method: as §1

Rsk4(h) = Rsk4(h) (Homo sapiens (Human), UniProt Q9UK32)
Method: as §1

CK2(h) = CK2(h) (Homo sapiens (Human), UniProt P68400)
Sequence of CK2(h) (P68400 whole entry): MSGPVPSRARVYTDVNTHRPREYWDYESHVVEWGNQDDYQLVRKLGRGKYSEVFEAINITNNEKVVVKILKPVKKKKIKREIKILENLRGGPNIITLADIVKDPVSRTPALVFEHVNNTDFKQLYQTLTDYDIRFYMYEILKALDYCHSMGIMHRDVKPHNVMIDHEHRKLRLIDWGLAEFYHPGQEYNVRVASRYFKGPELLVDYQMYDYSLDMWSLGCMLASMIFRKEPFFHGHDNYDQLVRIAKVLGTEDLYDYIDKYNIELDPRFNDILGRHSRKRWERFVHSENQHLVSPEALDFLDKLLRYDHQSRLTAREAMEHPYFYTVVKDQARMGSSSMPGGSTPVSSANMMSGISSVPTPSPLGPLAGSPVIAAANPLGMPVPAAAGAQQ
Sequence of CK2(h) (P67870 whole entry partner): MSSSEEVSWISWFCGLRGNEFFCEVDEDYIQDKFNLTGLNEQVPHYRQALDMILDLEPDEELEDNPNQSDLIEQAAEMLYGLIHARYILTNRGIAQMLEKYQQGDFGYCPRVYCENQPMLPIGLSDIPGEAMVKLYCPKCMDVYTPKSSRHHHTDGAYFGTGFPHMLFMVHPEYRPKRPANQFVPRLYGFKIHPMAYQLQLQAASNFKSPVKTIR
Method: as §1

ChaK1(h) = test system: ChaK1(h)
Method: as §1

TTBK2(h) = TTBK2(h) (Homo sapiens (Human), UniProt Q6IQ55)
Method: as §1

FGFR1(V561M)(h) = FGFR1(V561M)(h) (Homo sapiens (Human), UniProt P11362, V561M)
Sequence of FGFR1(V561M)(h) (P11362 22-822 V561M): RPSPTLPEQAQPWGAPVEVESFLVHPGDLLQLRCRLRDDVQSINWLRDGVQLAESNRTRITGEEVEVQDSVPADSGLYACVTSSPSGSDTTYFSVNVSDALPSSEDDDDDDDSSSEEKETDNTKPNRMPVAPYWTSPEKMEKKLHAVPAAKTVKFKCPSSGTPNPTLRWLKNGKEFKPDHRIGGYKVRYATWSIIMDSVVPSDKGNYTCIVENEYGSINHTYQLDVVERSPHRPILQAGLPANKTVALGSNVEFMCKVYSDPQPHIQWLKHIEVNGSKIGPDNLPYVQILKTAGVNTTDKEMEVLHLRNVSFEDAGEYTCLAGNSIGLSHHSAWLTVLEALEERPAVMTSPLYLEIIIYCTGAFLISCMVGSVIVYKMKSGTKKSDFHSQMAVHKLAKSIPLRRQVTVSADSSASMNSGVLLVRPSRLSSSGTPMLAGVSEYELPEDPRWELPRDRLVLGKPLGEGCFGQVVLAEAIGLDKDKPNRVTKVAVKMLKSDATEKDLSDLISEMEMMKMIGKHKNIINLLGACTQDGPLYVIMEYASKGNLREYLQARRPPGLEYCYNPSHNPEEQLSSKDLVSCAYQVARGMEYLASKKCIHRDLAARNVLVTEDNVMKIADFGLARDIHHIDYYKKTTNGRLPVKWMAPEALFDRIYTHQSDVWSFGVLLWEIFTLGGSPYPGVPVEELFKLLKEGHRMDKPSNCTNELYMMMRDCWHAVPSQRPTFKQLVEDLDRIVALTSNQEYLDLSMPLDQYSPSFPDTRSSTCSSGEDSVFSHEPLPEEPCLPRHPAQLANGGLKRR
Method: as §1

MST3(h) = MST3(h) (Homo sapiens (Human), UniProt Q9Y6E0)
CaMKIIα(h) = CaMKIIα(h) (Homo sapiens (Human), UniProt Q9UQM7)
Method: as §1

PTK5(h) = PTK5(h) (Homo sapiens (Human), UniProt P42685)
Method: as §1

EphA5(h) = EphA5(h) (Homo sapiens (Human), UniProt P54756)
Method: as §1

EGFR(h) = EGFR(h) (Homo sapiens (Human), UniProt P00533)
Method: as §1

Mnk2(h) = Mnk2(h) (Homo sapiens (Human), UniProt Q9HBH9)
Method: as §1

TGFBR2(h) = TGFBR2(h) (Homo sapiens (Human), UniProt P37173)
Sequence of TGFBR2(h) (P37173 23-567): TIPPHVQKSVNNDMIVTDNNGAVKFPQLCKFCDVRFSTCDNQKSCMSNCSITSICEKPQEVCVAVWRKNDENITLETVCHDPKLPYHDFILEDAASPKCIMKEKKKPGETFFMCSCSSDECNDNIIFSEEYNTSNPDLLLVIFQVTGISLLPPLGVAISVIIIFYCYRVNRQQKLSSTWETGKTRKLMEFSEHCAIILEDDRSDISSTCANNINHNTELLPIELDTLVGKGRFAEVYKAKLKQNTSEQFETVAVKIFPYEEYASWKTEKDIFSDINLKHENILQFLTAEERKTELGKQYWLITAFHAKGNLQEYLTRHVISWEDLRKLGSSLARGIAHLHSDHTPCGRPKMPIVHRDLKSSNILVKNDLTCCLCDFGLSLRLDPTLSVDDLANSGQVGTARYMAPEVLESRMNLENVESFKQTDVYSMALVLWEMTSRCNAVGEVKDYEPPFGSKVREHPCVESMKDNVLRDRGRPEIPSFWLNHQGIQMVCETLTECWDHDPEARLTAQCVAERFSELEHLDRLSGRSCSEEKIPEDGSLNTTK
Method: as §1

SAPK2a(T106M)(h) = SAPK2a(T106M)(h) (Homo sapiens (Human), UniProt Q16539, T106M)
Method: as §1

LKB1(h) = LKB1(h) (Homo sapiens (Human), UniProt Q15831)
Method: as §1

PAK1(h) = PAK1(h) (Homo sapiens (Human), UniProt Q13153)
Method: as §1

JNK2α2(h) = JNK2α2(h) (Homo sapiens (Human), UniProt P45984)
Method: as §1

MOK(h) = MOK(h) (Homo sapiens (Human), UniProt Q9UQ07)
Method: as §1

TBK1(h) = TBK1(h) (Homo sapiens (Human), UniProt Q9UHD2)
Sequence of TBK1(h) (Q9UHD2 whole entry): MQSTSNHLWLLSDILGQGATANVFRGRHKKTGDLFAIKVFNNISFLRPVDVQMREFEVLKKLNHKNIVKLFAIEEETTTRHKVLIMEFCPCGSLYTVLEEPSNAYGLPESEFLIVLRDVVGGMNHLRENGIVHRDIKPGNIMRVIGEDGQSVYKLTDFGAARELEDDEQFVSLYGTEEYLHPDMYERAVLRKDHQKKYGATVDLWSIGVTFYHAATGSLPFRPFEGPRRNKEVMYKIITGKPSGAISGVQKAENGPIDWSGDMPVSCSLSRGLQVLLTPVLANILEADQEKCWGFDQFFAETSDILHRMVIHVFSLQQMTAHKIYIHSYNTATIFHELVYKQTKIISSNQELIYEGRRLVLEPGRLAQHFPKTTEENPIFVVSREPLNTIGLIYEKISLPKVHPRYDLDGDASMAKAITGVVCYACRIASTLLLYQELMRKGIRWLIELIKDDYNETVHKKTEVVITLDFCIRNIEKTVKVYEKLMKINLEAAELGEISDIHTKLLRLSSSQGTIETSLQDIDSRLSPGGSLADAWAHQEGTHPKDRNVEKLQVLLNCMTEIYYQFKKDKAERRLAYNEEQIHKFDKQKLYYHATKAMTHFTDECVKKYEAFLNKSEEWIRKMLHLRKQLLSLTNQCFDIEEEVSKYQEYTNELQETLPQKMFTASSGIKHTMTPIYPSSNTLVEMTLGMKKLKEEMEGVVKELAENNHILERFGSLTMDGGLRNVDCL

IR(h), activated = IR(h), activated (Homo sapiens (Human), UniProt P06213)
Method: as §1

Tie2 (h) = Tie2 (h) (Homo sapiens (Human), UniProt Q02763)
Method: as §1

ALK4(h) = ALK4(h) (Homo sapiens (Human), UniProt P36896)
Method: as §1

TNIK(h) = TNIK(h) (Homo sapiens (Human), UniProt Q9UKE5)
Method: as §1

Sequence of AMPKα1(h) (Q13131 whole entry): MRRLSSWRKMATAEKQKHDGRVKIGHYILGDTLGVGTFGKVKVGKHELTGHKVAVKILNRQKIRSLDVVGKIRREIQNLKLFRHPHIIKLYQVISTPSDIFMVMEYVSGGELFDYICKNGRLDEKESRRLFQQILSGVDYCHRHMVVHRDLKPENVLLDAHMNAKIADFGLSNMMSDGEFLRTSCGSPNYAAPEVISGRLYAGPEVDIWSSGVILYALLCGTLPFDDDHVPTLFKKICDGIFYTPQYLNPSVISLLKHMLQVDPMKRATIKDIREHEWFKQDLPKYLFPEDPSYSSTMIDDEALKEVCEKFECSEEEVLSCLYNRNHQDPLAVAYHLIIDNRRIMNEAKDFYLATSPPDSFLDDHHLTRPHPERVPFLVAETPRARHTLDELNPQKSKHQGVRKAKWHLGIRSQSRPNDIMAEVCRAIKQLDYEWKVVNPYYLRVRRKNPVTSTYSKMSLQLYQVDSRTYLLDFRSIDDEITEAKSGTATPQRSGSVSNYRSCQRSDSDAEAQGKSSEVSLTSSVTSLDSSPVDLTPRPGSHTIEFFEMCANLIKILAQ
Sequence of AMPKα1(h) (Q9Y478 whole entry partner): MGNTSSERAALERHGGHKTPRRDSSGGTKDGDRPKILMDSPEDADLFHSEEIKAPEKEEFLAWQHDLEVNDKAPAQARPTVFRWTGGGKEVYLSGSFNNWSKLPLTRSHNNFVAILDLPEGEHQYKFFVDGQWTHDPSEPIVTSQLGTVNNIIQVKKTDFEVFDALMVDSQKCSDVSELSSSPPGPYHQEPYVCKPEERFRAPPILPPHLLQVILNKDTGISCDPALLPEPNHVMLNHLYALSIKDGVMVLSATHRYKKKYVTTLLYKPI
Sequence of AMPKα1(h) (P54619 whole entry partner): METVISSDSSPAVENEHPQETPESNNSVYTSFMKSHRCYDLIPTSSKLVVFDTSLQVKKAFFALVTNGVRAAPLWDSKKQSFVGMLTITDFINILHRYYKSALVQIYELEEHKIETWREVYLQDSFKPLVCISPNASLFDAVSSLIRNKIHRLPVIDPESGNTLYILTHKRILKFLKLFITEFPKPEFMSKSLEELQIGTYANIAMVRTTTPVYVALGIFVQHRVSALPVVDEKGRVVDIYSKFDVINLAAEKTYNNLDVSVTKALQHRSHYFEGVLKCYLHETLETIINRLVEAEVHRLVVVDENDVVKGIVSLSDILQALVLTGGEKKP

SMILES: C[C@H](NC(=O)c1c[nH]c2ccc(-c3ccc4nc(NC(=O)C5CC5)sc4c3)cc12)c1cccc(F)c1 [Compound 34, (S)-5-(2-(cyclopropanecarboxamido)benzo[d]thiazol-6-yl)-N-(1-(3-fluorophenyl)ethyl)-1H-indole-3-carboxamide]
- Inhibition ratio (AMPKα1(h)): 4%
- Inhibition ratio (CLK2(h)): 77%
- Inhibition ratio (MARK4(h)): 3%
- Inhibition ratio (Ros(h)): 31%
- Inhibition ratio (SGK3(h)): −1%
- Inhibition ratio (PRK1(h)): 26%
- Inhibition ratio (CK1δ(h)): 33%
- Inhibition ratio (NEK4(h)): 30%
- Inhibition ratio (MYO3B(h)): 16%
- Inhibition ratio (PDGFRβ(h)): 9%
- Inhibition ratio (CDK5/p35(h)): −7%
- Inhibition ratio (Abl(m)): 99%
- Inhibition ratio (Rsk4(h)): −15%
- Inhibition ratio (CK2(h)): −9%
- Inhibition ratio (ChaK1(h)): 5%
- Inhibition ratio (TTBK2(h)): 8%
- Inhibition ratio (FGFR1(V561M)(h)): 80%
- Inhibition ratio (MST3(h)): 7%
- Inhibition ratio (CaMKIIα(h)): 5%
- Inhibition ratio (PTK5(h)): 51%
- Inhibition ratio (EphA5(h)): 40%
- Inhibition ratio (EGFR(h)): 19%
- Inhibition ratio (Mnk2(h)): 38%
- Inhibition ratio (TGFBR2(h)): 25%
- Inhibition ratio (SAPK2a(T106M)(h)): 63%
- Inhibition ratio (LKB1(h)): 6%
- Inhibition ratio (PAK1(h)): 4%
- Inhibition ratio (JNK2α2(h)): 25%
- Inhibition ratio (MOK(h)): −15%
- Inhibition ratio (TBK1(h)): 53%
- Inhibition ratio (IR(h), activated): 13%
- Inhibition ratio (Tie2 (h)): 96%
- Inhibition ratio (ALK4(h)): 3%
- Inhibition ratio (TNIK(h)): 99%

SMILES: C[C@H](NC(=O)c1cn(C)c2ccc(-c3ccn4nc(NC(=O)C5CC5)nc4c3)cc12)c1cccc(F)c1 [Compound 94, (S)-5-(2-(cyclopropanecarboxamido)-[1,2,4]triazolo[1,5-a]pyridin-7-yl)-N-(1-(3-fluorophenyl)ethyl)-1-methyl-1H-indole-3-carboxamide]
- Inhibition ratio/% (AMPKα1(h)): 57%
- Inhibition ratio/% (CLK2(h)): 77%
- Inhibition ratio/% (MARK4(h)): 38%
- Inhibition ratio/% (Ros(h)): −18%
- Inhibition ratio/% (SGK3(h)): 41%
- Inhibition ratio/% (PRK1(h)): −12%
- Inhibition ratio/% (CK1δ(h)): −12%
- Inhibition ratio/% (NEK4(h)): 27%
- Inhibition ratio/% (MYO3B(h)): −18%
- Inhibition ratio/% (PDGFRβ(h)): 49%
- Inhibition ratio/% (CDK5/p35(h)): −8%
- Inhibition ratio/% (Abl(m)): 61%
- Inhibition ratio/% (Rsk4(h)): 3%
- Inhibition ratio/% (CK2(h)): 44%
- Inhibition ratio/% (ChaK1(h)): 66%
- Inhibition ratio/% (TTBK2(h)): −16%
- Inhibition ratio/% (FGFR1(V561M)(h)): 45% and 30%
- Inhibition ratio/% (MST3(h)): 33%
- Inhibition ratio/% (CaMKIIα(h)): 76%
- Inhibition ratio/% (PTK5(h)): 48%
- Inhibition ratio/% (EphA5(h)): 4%
- Inhibition ratio/% (EGFR(h)): 10%
- Inhibition ratio/% (Mnk2(h)): 51%
- Inhibition ratio/% (TGFBR2(h)): −6%
- Inhibition ratio/% (SAPK2a(T106M)(h)): −20%
- Inhibition ratio/% (LKB1(h)): 55%
- Inhibition ratio/% (PAK1(h)): 18%
- Inhibition ratio/% (JNK2α2(h)): 40%
- Inhibition ratio/% (MOK(h)): −15%
- Inhibition ratio/% (TBK1(h)): 13%
- Inhibition ratio/% (IR(h), activated): 35%
- Inhibition ratio/% (Tie2 (h)): 30%
- Inhibition ratio/% (ALK4(h)): −18%
- Inhibition ratio/% (TNIK(h)): 59%
